Results as given in US7906283B2, “Methods to identify patients at risk of developing adverse events during treatment with antidepressant medication” (The United States of America as represented by the …, priority 2006, dated 2011).

Test system: outpatients with major depressive disorder
Assay: STAR*D trial: treatment-emergent suicidal ideation (TESI) by QIDS-SR16 item 12 during citalopram treatment
Format: in vivo, human
Details: citalopram typically starting at 20 mg/day, up to 14 weeks; comparison group n=1742; 53 participants missing data excluded
From the text: DNA was collected from a clinically-representative cohort of 1938 outpatients with major depressive disorder enrolled in the Sequenced Treatment Alternatives to Relieve Depression (STAR*D) trial. Outpatients 18-75 years of age with a baseline 17-item Hamilton Depression Rating Scale (see Hamilton et al., J. Neurol. Neurosurg. Psychiatry, 23: 56-62 (1960); and Hamilton, Br. J. Soc. Clin. Psychol., 6(4): 278-296 (1967)) (HRSD17) score of ≧14 who met the Diagnostic and Statistical Manual of Mental Disorders (DSM)-IV criteria for non-psychotic major depressive disorder (MDD) were eligible for the trial. […]
The 16-item Quick Inventory of Depressive Symptomatology—Self-report (QIDS-SR16) was used as a measure of symptom severity (see Rush et al., Int. J. Methods Psychiatr. Res., 9: 45-59 (2000): Rush et al., Biol. Psychiatry, 54(5): 573-583 (2003); Trivedi et al., Psychol. Med., 34(1): 73-82 (2004); Rush et al., Neuropsychompharmacology, 30(2): 405-416 (2005); and Rush et al., Biol. Psychiatry, 59(6): 493-501 (2006)) and was obtained at baseline and at each bi-weekly clinic visit. […] Participants who scored “0” on this item before citalopram treatment, but who scored 1, 2, or 3 on the same item at least once while receiving citalopram were defined as TESI cases (n=120). […]

CN(C)CCCC1(c2ccc(F)cc2)OCc2cc(C#N)ccc21 (stereo not shown) [citalopram]
TESI cases (scored 0 on QIDS-SR16 item 12 before citalopram treatment, but 1, 2 or 3 at least once while receiving citalopram): 120 participants
